Results as given in US4028396A, “16,16-Spirocycloalkyl prostaglandin derivatives” (American Cyanamid Company, priority 1975, dated 1977).

Columns and labels:
[1] = test system: basal gastric acid secretion; assay: inhibition of gastric acid secretion in the acute gastric fistula rat; type: in vivo, Female Sprague-Dawley rats; details: 10 mg./kg., intraduodenal
Protocol: The compounds of this invention are also useful as inhibitors of gastric acid secretion and peptic ulcer formation and may be used for the treatment of gastric hyperacidity, gastric erosion, and peptic ulcer. Inhibition of basal gastric acid secretion can be determined by the following procedure.
Female Sprague-Dawley rats weighing 140-160 grams are fasted in individual cages for 18-24 hours. The rats are then lightly anesthetized with ether and their front teeth extracted to avoid destruction of the plastic cannula. A midline incision is then made and the stomach and duodenum exposed. A flanged polyvinyl tube is inserted into the fundic portion of the stomach and secured with a purse string suture line using 4-0 Mersilene. The rat is then dosed by injection of the compound into the duodenum (1.0 ml. per 100 gram body weight). After dosing, the abdominal wall and skin are closed using metal wound clips. The rat is replaced in a cage containing a longitudinal slit to allow the polyvinyl tube to hang freely. An 8 ml. plastic collecting tube is attached to the flanged cannula and hangs freely below the cage. The first 30 minute sample is discarded designating this time as zero. The collecting tube is attached again and samples removed at the end of 60 and 120 minutes. The hourly samples are then transferred to a 15 ml. centrifuge and centrifuged for 5-10 minutes. Total and sediment volume are then recorded with supernatant volume being used as volume of secretion. A 1 ml. or less aliquot is then removed and placed in a 50 ml. beaker containing 10 ml. of distilled water. This sample is then titrated using 0.01N NaOH to pH 7.0 using a Beckman zeromatic pH meter. Volume, tritratable acidity (meq/L) and total acid output (ueg/hour) are recorded. Percent inhibition is determined by comparison with the appropriate control. Groups of three rats were used for preliminary testing, and groups of six rates were used for dose-response evaluations. All compounds are administered in a vehicle consisting of 0.5% methocel, 0.4% tween 80, and saline at a constant volume of 1 ml./100 gram rat. Samples are dispersed by sonification. Percent inhibition is calculated on basis of concurrent vehicle control.
In Table B which follows is given the effect on total acid output after 60 minutes (response A) and 120 minutes (response B) for various doses of representative compounds of this invention.

[2] = test system: basal gastric acid secretion; assay: as above; type: in vivo, Female Sprague-Dawley rats; details: oral
[3] = test system: smooth muscle; details: cited from earlier work
[4] = test system: systemic arterial blood pressure; details: in vivo; cited from earlier work
[5] = test system: mobilization of free fatty acids; details: cited from earlier work
[6] = test system: bronchospasms elicited by acetylcholine; assay: bronchodilator activity, Konzett procedure, acetylcholine bronchospasm; type: in vivo, guinea pigs; details: Cavia porcellus; three logarithmic cumulative intravenous doses; spasmogen acetylcholine
Protocol: (§1) The compounds of this invention are useful as bronchodilators for the treatment of asthma and chronic bronchitis. Bronchodilator activity is determined in guinea pigs against bronchospasms elicited by intravenous injections of 5-hydroxytryptamine, histamine or acetylcholine by the Konzett procedure. [See J. Lulling, P. Lievens, F. El Sayed and J. Prignot, Arzneimittel-Forschung, 18, 955 (1968).]
(§2) In Table A which follows bronchodilator activity for representative compounds of this invention against one or more of three spasmogenic agents is expressed as an ED50 determined from the results obtained with three logarithmic cumulative intravenous doses.

[7] = test system: bronchospasms elicited by 5-hydroxytryptamine; assay: bronchodilator activity, Konzett procedure, 5-hydroxytryptamine bronchospasm; type: in vivo, guinea pigs; details: Cavia porcellus; three logarithmic cumulative intravenous doses; spasmogen 5-hydroxytryptamine
Protocol: as §1, §2

[8] = test system: bronchospasms elicited by histamine; assay: bronchodilator activity, Konzett procedure, histamine bronchospasm; type: in vivo, guinea pigs; details: Cavia porcellus; three logarithmic cumulative intravenous doses; spasmogen histamine
Protocol: as §1, §2

[9] = test system: gastric acid output stimulated by histamine; assay: gastric fistula dog, gastric acid output stimulated by histamine; type: in vivo; details: oral
Protocol: (§3) With the former agent a dose of 0.16 mg./kg. is sufficient to inhibit more than 50% of the control output.

[10] = test system: gastric acid output stimulated by gastrin tetrapeptide; assay: gastric fistula dog, gastric acid output stimulated by gastrin tetrapeptide; type: in vivo; details: oral, 0.16 mg./kg., % of the control output
Protocol: as §3

[11] = cited from earlier work

| SMILES | %-Inhibition of Total Acid Output ([1]; after 60 min.) [%] | %-Inhibition of Total Acid Output ([1]; after 120 min.) [%] | %-Inhibition of Total Acid Output ([2]; 10 mg./kg., after 60 min.) [%] | %-Inhibition of Total Acid Output ([2]; 10 mg./kg., after 120 min.) [%] | ED50 [6] [mg/kg] | ED50 [7] [mg/kg] | ED50 [8] [mg/kg] | other results |
| --- | --- | --- | --- | --- | --- | --- | --- | --- |
| CCCCC1([C@H](O)/C=C/[C@H]2CCC(=O)[C@@H]2CCCCCCC(=O)OCC)CCC1 (relative stereo) [ethyl 15-hydroxy-9-oxo-16,16-trimethylene-13-trans-prostenoate] | 100 | 100 | 48 | 38 | – | – | – | – |
| CCCCC[C@H](O)/C=C/[C@H]1[C@H](O)CC(=O)[C@@H]1CCCCCCC(=O)O [PGE1] | – | – | – | – | – | – | – | potency in causing smooth muscle stimulation [3]: extremely potent; potency in causing vasodepression [4]: extremely potent; potency as antilipolytic agent [5]: potent |
| CCCCC1([C@@H](O)/C=C/[C@H]2CCC(=O)[C@@H]2CCCCCCC(=O)OCC)CCC1 (relative stereo) [ethyl 15-epi-hydroxy-9-oxo-16,16-trimethylene-13-trans-prostenoate] | 98 | 87 | 77 | 67 | – | – | – | – |
| CCCCC1([C@@H](O)/C=C/[C@H]2CCC(=O)[C@@H]2CCCCCCC(=O)O)CCC1 (relative stereo) [9-oxo-15-epi-hydroxy-16,16-trimethylene-13-trans-prostenoic acid] | 98 | 92 | 85 | 61 | 0.003 | 0.135 | 0.014 | – |
| CCCCC1([C@H](O)/C=C/[C@H]2CCC(=O)[C@@H]2CCCCCCC(=O)O)CCC1 (relative stereo) [9-oxo-15-hydroxy-16,16-trimethylene-13-trans-prostenoic acid] | 98 | 75 | – | – | 0.048 | 0.02 | 0.0024 | %-Inhibition of Total Acid Output ([2]; 2.5 mg./kg., after 60 min.): 86%; %-Inhibition of Total Acid Output ([2]; 2.5 mg./kg., after 120 min.): 83% |
| CCCCC1([C@@H](O)/C=C/[C@H]2[C@H](O)CC(=O)[C@@H]2C/C=C\CCCC(=O)O)CCC1 (relative stereo) [11α,15-epi-dihydroxy-9-oxo-16,16-trimethylene-5-cis,13-trans-prostadienoic acid] | 98 | 86 | 32 | 39 | 0.032 | 0.305 | 0.048 | – |
| CCCCC1([C@H](O)/C=C/[C@H]2[C@H](O)CC(=O)[C@@H]2C/C=C\CCCC(=O)O)CCC1 (relative stereo) [11α,15-dihydroxy-9-oxo-16,16-trimethylene-5-cis,13-trans-prostadienoic acid] | 100 | 100 | 100 | 100 | 0.0011 | 0.0025 | 0.0015 | inhibition of the stimulation of gastric acid output by histamine [9]: will inhibit the stimulation of gastric acid output; inhibition of gastric acid output stimulated by gastrin tetrapeptide [10]: more than 50%; %-Inhibition of Total Acid Output ([2]; 0.63 mg./kg., after 60 min.): 30%; %-Inhibition of Total Acid Output ([2]; 0.63 mg./kg., after 120 min.): 35%; %-Inhibition of Total Acid Output ([2]; 1.25 mg./kg., after 60 min.): 40%; %-Inhibition of Total Acid Output ([2]; 1.25 mg./kg., after 120 min.): 36%; %-Inhibition of Total Acid Output ([2]; 2.5 mg./kg., after 60 min.): 87%; %-Inhibition of Total Acid Output ([2]; 2.5 mg./kg., after 120 min.): 74% |
| CCCCC[C@H](O)/C=C/[C@H]1[C@H](O)CC(=O)[C@@H]1C/C=C\CCCC(=O)O [prostaglandin E2] | – | – | – | – | – | – | – | potency in causing smooth muscle stimulation [3]: extremely potent; potency in causing vasodepression [4]: extremely potent; potency as antilipolytic agent [5]: potent; time within which the solution must be used ([11]; room temperature): one day; time within which saline solution should preferably be used ([11]; saline solution stored at 40° C. (so in the source), preferably): 2 to 3 days; time within which saline solution should be used ([11]; saline solution stored at 40° C. (so in the source)): a week; decrease in biological activity on storage ([11]; ten days storage at 4° C., concentration 100 mg./ml.): significant decrease |
